Source: PubChem BioAssay AID434933 (The Scripps Research Institute Molecular Screening Center, 2010)
Several values for one entry are separate records, joined by “and”; a condition that tells them apart may be missing. Equal values may be shown once. Activity calls are given as the source filed them.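 The calls were made as follows: active = compound with HepG2 cell viability IC50 of 10 micromolar or lower; inactive = IC50 above 10 micromolar.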

tested on: HepG2 viability, CellTiter-Glo ATP luminescence; test: cytotoxicity in HepG2 cells, late-stage follow-up, cytotoxicity control for TPT1 inhibitor project, cell-based, luminescence, dose response (AID 434933)

Row | SMILES | IC50
1 | CC1=C(C#N)C(=O)N(C2CCS(=O)(=O)C2)C(=O)/C1=C\c1ccco1 (stereo not given) | > 79.4 µM (inactive)
2 | COc1ccc(OC)c(N2C(=O)/C(=C/c3ccco3)C(=O)NC2=S)c1 | > 79.4 µM (inactive)
3 | O=c1oc2c(O)c(O)cc3c(=O)oc4c(O)c(O)cc1c4c23 | > 79.4 µM (inactive)
4 | NC(=O)c1cc[n+](CC2=C(C(=O)O)N3C(=O)[C@@H](NC(=O)C(c4ccccc4)S(=O)(=O)O)[C@H]3SC2)cc1 (stereo not given in full) | > 79.4 µM (inactive)
5 | OC(Cn1cncn1)(Cn1cncn1)c1ccc(F)cc1F | > 79.4 µM (inactive)
6 | Cc1ccccc1N1C(=O)/C(=C/c2ccco2)C(=O)NC1=S | > 79.4 µM (inactive) and 36.6 µM (inactive)
7 | NS(=O)(=O)c1cc(C(=O)NC2CCSc3ccccc32)ccc1Cl (stereo not given) | > 79.4 µM (inactive)
8 | Cc1cc(C)n(Cc2ccc(C(=O)NN=Cc3ccc(-c4ccc([N+](=O)[O-])cc4)o3)o2)n1 | 72.7 µM (inactive)
9 | Cc1[nH]n(-c2ccc(S(=O)(=O)O)cc2)c(=O)c1N[N-]c1ccc(C2=CC(=O)/C(=N\[N-]c3ccc4c(S(=O)(=O)O)cc(S(=O)(=O)O)c(N)c4c3O)C=C2)cc1O.[Cu+].[Cu+] | 53.6 µM (inactive)
10 | Cc1ccc(N2C(=O)NC(=O)/C(=C\c3ccc([N+](=O)[O-])o3)C2=O)cc1 | 53.5 µM (inactive)
